Test results as given in patent US9481648B2, “Kinase inhibitors” (Respivert Limited, priority 2013, dated 2016).
Read-outs that look alike come from different tables or passages of the source.

Tests used:
[1] = tested on: adoptive transfer (CD45RBhigh cells) colitis in SCID mice; experiment: Adoptive transfer in mice (in vivo v); set-up: species or system mouse; settings: for activity in T cell driven in vivo model of colonic inflammation (relative ratios of colon weight to length) / Colon weight:length / IFNγ level in colon tissue / IL-8 level in colon tissue / levels of pro-inflammatory cytokines in samples of colon tissue: adoptive transfer mouse model; for % Inhibition (of the induction window between naïve and vehicle animals): colon weight:length
Method: On Study day 0, female Balb/C mice are terminated and spleens obtained for CD45RB^high cell isolation (Using SCID IBD cell Separation protocol). Approximately 4×10^5 cells/mL CD45RB^high cells are then injected intraperitoneally (100 μL/mouse) into female SCID animals. On study day 14, mice are weighed and randomized into treatment groups based on body weight. On Day 14, compounds are administered BID, via oral gavage, in a peanut oil vehicle at the dose levels outlined below in Tables 6a and 6b and a dose volume of 5 mL/kg. Treatment continues until study day 42, at which point the animals are necropsied 4 hours after the morning administration. The colon length and weight are recorded and used as a secondary endpoint in the study as a measurement of colon oedema. The colon is then divided into six cross-sections, four of which are used for histopathology scoring (primary endpoint) and two are homogenised for cytokine analysis. Data shown is the % inhibition of the induction window between naïve animals and vehicle animals, where higher inhibition implies closer to the non-diseased, naïve, phenotype.

[2] = tested on: β-catenin in d-U937 cells; experiment: Accumulation of β catenin in d-U937 cells (assay m); assay type: cell-based, human
Procedure, shortened: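 U937 cells were differentiated with PMA (100 ng/mL) for 48–72 hr, then treated with compound or vehicle for 18 hr. After formaldehyde fixation, β-catenin was detected with a primary antibody and an HRP secondary using TMB (OD450–655). Signal was normalised to crystal violet cell staining (OD595).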

[3] = target: Syk (Homo sapiens (Human), UniProt P43405); experiment: KINOMEscan enzyme binding assay (dissociation constant)
Method: (§1) Kinase enzyme binding activities of compounds disclosed herein may be determined using a proprietary assay which measures active site-directed competition binding to an immobilized ligand (Fabian, M. A. et al., Nature Biotechnol., 2005, 23:329-336). These assays may be conducted by DiscoverX (formerly Ambit; San Diego, Calif.). The percentage inhibition produced by incubation with a test compound may be calculated relative to the non-inhibited control.

[4] = target: p38 MAPKα (Homo sapiens (Human), UniProt Q16539); experiment: as above
Chain of p38 MAPKα (Q16539 whole entry): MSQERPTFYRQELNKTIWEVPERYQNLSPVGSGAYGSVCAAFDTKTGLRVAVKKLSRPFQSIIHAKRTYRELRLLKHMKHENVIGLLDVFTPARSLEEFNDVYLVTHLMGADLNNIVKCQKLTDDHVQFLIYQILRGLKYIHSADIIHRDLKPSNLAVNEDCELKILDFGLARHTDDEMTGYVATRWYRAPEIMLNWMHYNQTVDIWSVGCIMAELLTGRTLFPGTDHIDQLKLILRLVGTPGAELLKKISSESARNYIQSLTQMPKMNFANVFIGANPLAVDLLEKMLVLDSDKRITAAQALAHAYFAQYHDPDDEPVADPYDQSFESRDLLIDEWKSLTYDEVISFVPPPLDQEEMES
Method: as §1

[5] = target: Lck (Homo sapiens (Human), UniProt P06239); experiment: as above
Chain of Lck (P06239 whole entry): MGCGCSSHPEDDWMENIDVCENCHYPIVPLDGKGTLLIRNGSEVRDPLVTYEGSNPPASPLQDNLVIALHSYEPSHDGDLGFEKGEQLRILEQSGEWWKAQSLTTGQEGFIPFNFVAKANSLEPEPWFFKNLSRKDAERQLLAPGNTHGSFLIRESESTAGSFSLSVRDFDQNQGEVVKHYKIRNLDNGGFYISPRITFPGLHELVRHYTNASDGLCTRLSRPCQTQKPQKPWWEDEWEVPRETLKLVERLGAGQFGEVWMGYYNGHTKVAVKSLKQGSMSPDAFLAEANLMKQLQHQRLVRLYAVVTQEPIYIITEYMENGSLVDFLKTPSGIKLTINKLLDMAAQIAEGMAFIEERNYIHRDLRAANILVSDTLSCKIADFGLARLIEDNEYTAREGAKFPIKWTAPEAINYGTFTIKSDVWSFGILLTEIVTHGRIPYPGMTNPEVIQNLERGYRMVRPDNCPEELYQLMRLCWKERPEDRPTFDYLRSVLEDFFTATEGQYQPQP
Method: as §1

[6] = tested on: human hepatocytes; experiment: Human hepatocyte stability test; assay type: in vitro ADME
Method: Assessment of certain in vitro ADME (absorption, distribution, metabolism, and excretion) parameters for certain compounds of the invention was conducted by BioFocus (Saffron Walden, UK).

[7] = Plasma pharmacokinetics and total colon tissue distribution in mice, single oral administration; assay type: in vivo, mouse (male C57BL/6); settings: male, C57BL/6, mouse, 5 mg/kg
Method: Studies were conducted by Sai Life Sciences (Hinjewadi, Pune, India) to investigate the plasma pharmacokinetics and total colon tissue distribution of compounds of the invention. In particular, pharmacokinetic studies were carried out in: • male C57BL/6 mice, following a single oral administration; and • male Wistar rats following a single intravenous or oral administration.

[8] = tested on: Salmonella typhimurium strain TA100; experiment: Mutagenicity assessment (bacterial reverse mutation screen); assay type: cell-based; settings: strain TA100, presence or absence of S-9 mix, up to 1000 μg/plate analysable
Method: Studies were conducted by Sequani (Ledbury, Herefordshire, UK) to assess compounds of the invention for their ability to induce mutations in two histidine dependent auxotrophic mutants of Salmonella typhimurium, strains TA98 and TA100 in vitro.
The mutation screen was conducted using the plate incorporation method and was performed in both the presence and absence of S-9 mix (a liver post-mitochondrial fraction derived from the livers of Aroclor 1254 treated rats). The bacteria were exposed to test compounds dissolved in dimethylsulphoxide, which solvent was also used as the negative control. The dose levels used were 0.32, 1.6, 8, 40, 200, 1000 or 5000 μg/plate.
Precipitation was also noted in both strains at 1000 μg/plate in the presence and absence of S-9 mix.

[9] = tested on: rat, Cynomolgus macaque or human hepatocytes; experiment: Analysis of metabolites after incubation with hepatocytes; assay type: in vitro ADME; settings: 10 μM
Method: Studies were conducted by BioFocus (Saffron Walden, UK) to determine the metabolic fate of the compound of Example 16 following incubation with rat, Cynomolgus macaque or human hepatocytes.
Separate incubations (n=3) of the compound of Example 16 (10 μM initial concentration) or DMSO control, were performed with cryopreserved hepatocytes from each species (0.5 million cell/mL) at 37° C. for 0, 60 and 90 minutes before termination of reactions and compound extraction with acetonitrile. Sample replicates were pooled prior to analysis.
Potential metabolites were identified using time-of-flight (TOF) and triple quadruple (TQ) mass spectrometers.

[10] = plasma, read-out: Median plasma concentration
[11] = total colon, read-out: Median total colon concentration

| SMILES | activity in T cell driven in vivo model of colonic inflammation (relative ratios of colon weight to length) [1] | Colon weight:length ([1]; 3 mg/kg BID oral) | % β-catenin induction ([2]; test compound 1 μg/mL) [%] | % β-catenin induction ([2]; test compound 5 μg/mL) [%] | % β-catenin induction ([2]; test compound 10 μg/mL) [%] | Kd [3] [nM] | Kd [4] [nM] | Kd [5] [nM] | Mean hepatic extraction ratio [6] | concentration at 6 h [7, 10] [ng/mL] | concentration at 1 h [7, 11] [ng/g] | concentration at 2 h [7, 11] [ng/g] | concentration at 4 h [7, 11] [ng/g] | concentration at 6 h [7, 11] [ng/g] | concentration at 8 h [7, 11] [ng/g] | concentration at 12 h [7, 11] [ng/g] | concentration at 24 h [7, 11] [ng/g] | increases in revertant colonies [8] | levels of pro-inflammatory cytokines in samples of colon tissue [1] | also measured |
| --- | --- | --- | --- | --- | --- | --- | --- | --- | --- | --- | --- | --- | --- | --- | --- | --- | --- | --- | --- | --- |
| COCCOCCOCCNC(=O)c1cc(Nc2cc(Oc3ccc(NC(=O)Nc4cc(C(C)(C)C)cc(NS(C)(=O)=O)c4OC)c4ccccc34)ccn2)cc(OC)c1 [Example 3, 3-((4-((4-(3-(5-(tert-Butyl)-2-methoxy-3-(methylsulfonamido)phenyl)ureido)naphthalen-1-yl)oxy)pyridin-2-yl)amino)-5-methoxy-N-(2-(2-(2-methoxyethoxy)ethoxy)ethyl)benzamide] | significant activity | 0.039 ± 0.003 | 0 | 4 | 4 | 10 | 6.9 | 2.3 | 0.85 | 114 | 107 | 274 | 209 | 255 | 278 | 232 | 19.1 |  |  |  |
| COCCOCCOCCOc1cc(Nc2nccc(Oc3ccc(NC(=O)Nc4cc(C(C)(C)C)cc(NS(C)(=O)=O)c4OC)c4ccccc34)n2)cc(OC)c1 [Example 4, N-(5-(tert-Butyl)-2-methoxy-3-(3-(4-((2-((3-methoxy-5-(2-(2-(2-methoxyethoxy)ethoxy)-ethoxy)phenyl)amino)pyrimidin-4-yl)oxy)naphthalen-1-yl)ureido)phenyl)methanesulfonamide] |  |  | 3 | 20 | 20 | 14 | 19 | 3 |  |  |  |  |  |  |  |  |  | no dose-related or statistically significant increases | significantly reduced | Colon weight:length ([1]; 0.3 mg/kg BID oral gavage): 0.030 ± 0.008; % Inhibition (of the induction window between naïve and vehicle animals) ([1]; 0.3 mg/kg BID oral gavage): 62%; Colon weight:length ([1]; 1 mg/kg BID oral gavage): 0.020 ± 0.002; % Inhibition (of the induction window between naïve and vehicle animals) ([1]; 1 mg/kg BID oral gavage): 110%; IFNγ level in colon tissue ([1]; 1 mg/kg): 2.8 ± 0.8 pg/mL; IL-8 level in colon tissue ([1]; 1 mg/kg): 53.3 ± 23.0 pg/mL |
| C#Cc1cc(Nc2nccc(Oc3ccc(NC(=O)Nc4cc(C(C)(C)C)cc(NS(C)(=O)=O)c4OC)c4ccccc34)n2)cc(C(=O)NCCOCCOCCOC)c1 [Example 16] | significant activity |  |  |  |  |  |  |  |  |  |  |  |  |  |  |  |  | no dose-related or statistically significant increases | significantly reduced | number of metabolites resulting from oxidation on the polyethylene glycol chain of the amide moiety ([9]; hepatocytes): 8; products connected to metabolism at the naphthalene moiety ([9]; hepatocytes): no products were noted; number of metabolites formed in hepatocytes ([9]; rat, Cynomolgus macaque or human hepatocytes, 0, 60 and 90 minutes): 9 |
| COc1cc(Nc2cc(Oc3ccc(NC(=O)Nc4cc(C(C)(C)C)cc(NS(C)(=O)=O)c4OC)c4ccccc34)ccn2)cc(C(=O)NCCN2CCOCC2)c1 [Example 27] |  | 0.034 ± 0.003 | −12 | −7 | −1 | 27 | 29 | 4.3 |  |  |  |  |  |  |  |  |  | no dose-related or statistically significant increases | significantly reduced | Colon weight:length ([1]; 3 mg/kg BID oral gavage): 0.022 ± 0.002; % Inhibition (of the induction window between naïve and vehicle animals) ([1]; 3 mg/kg BID oral gavage): 99%; IFNγ level in colon tissue ([1]; 3 mg/kg): 19.1 ± 6.5 pg/mL; IL-8 level in colon tissue ([1]; 3 mg/kg): 131.1 ± 56.1 pg/mL; Colon weight:length ([1]; 0.03 mg/kg BID oral): 0.047 ± 0.005; Colon weight:length ([1]; 0.3 mg/kg BID oral): 0.038 ± 0.004 |
| COc1c(NC(=O)Nc2ccc(Oc3ccnc(Nc4ccccc4)c3)c3ccccc23)cc(C(C)(C)C)cc1C(=O)NC1COC1 [Example 75, 5-(tert-Butyl)-2-methoxy-N-(oxetan-3-yl)-3-(3-(4-((2-(phenylamino)pyridin-4-yl)oxy)-naphthalen-1-yl)ureido)benzamide] |  |  | 3 | 25 | 30 | 8.8 | 14 | 2.5 | <0.50 | 0 | 17.8 | 56.2 | 1340 | 5720 | 350 | 391 | 7.5 | no dose-related or statistically significant increases |  | concentration at 1 h [7, 10]: 1.8 ng/mL; concentration at 2 h [7, 10]: 1.5 ng/mL; concentration at 4 h [7, 10]: 0 ng/mL; concentration at 8 h [7, 10]: 0 ng/mL; concentration at 12 h [7, 10]: 0 ng/mL; concentration at 24 h [7, 10]: 0 ng/mL |
